# Laboratory results from US20250154169A1, “COMPOUNDS AND METHODS FOR MODULATING SPLICING” (REMIX THERAPEUTICS INC., priority 2021, published 2025).
# Counter-ions that a name gives are not always drawn. Like-named read-outs stand apart in the source and are kept apart here.
# Tests used:
# [1] = tested on: K562 cells; test: Cell Titer Glo 2.0 cell viability assay, K562; format: cell-based; details: Homo sapiens, 72 hours incubation
# [2] = tested on: Target C; test: Protein abundance, HiBit-assay system (Promega), Target C; format: cell-based, human; details: Table 6; HiBiT-modified K562 cells, 24 hours
# Procedure: Compounds described herein were used to screen for effects on quantitative protein abundance using a HiBit assay system (Promega). Quantitative protein abundance was determined by measuring the protein levels of HiBit-tagged protein targets expressed in cell culture via luminescence using the Nano-Glo HiBiT Lytic Detection System, which uses a split complementation assay format to reconstitute NanoBiT enzyme to generate a luminescent signal. A protein abundance assay was developed such that endogenous protein targets could be modified with the HiBiT peptide tag and their abundance could be assessed after compound treatment. Briefly, K562 cell lines containing a HiBiT-modification were treated with various compounds described herein (e.g., compounds of Formulas (I) or (II)). After treatment for 24 hours, the protein abundance of a specific target was determined by measuring luminescence.
# Cells were maintained in EIDM with 10% FBS. Before the assay, cells were diluted with […] growth media (EIDM+1% FBS media) and were seeded in a 384-well plate at a density of 10000 cells/well (for each cell line listed in Table 5). Each compound was prepared as a 10-point 3-fold serial dilution in DMSO with the top dose at a final concentration of 10 μM in the well. Unmodified K562 cells were added at the previously specified density with DMSO to serve as an assay baseline and positive control (PC) and DMSO only with the respective modified cell lines was added to the negative control (NC) columns. Final DMSO concentration was kept at or below 0.25%. Treated cell plates were placed in an incubator at 37° C. with 5% CO2 for 24 hours. After 24 hours, 25 μL of Complete HiBit Lytic reagent was added to each well at room temperature (e.g. one plate requiring 10 mL Lytic Buffer, 100 μL LgBiT Protein, 200 μL Lytic Substrate), shaken for 5 minutes at 600 RPM, then left to sit for 10 minutes for signal to stabilize before reading on a Spark Cyto plate reader (Tecan) with a 500 ms measurement time.
# To determine compound effects on protein abundance of each target in Table 6, the percent response for each respective cell line was calculated at each compound concentration as follows:
# For the normalized response at each concentration, a four-parameter logistical regression was fit to the data and the response was interpolated at the 50% value to determine a concentration for protein abundance at […] the untreated control.
# [3] = tested on: HTT mRNA; test: Splicing RT-qPCR assay, HTT canonical (CJ) and alternative (AJ) junction mRNA; format: cell-based, human; details: Homo sapiens, A673 or K562 cells, 24 hours compound treatment; for IC50: read-out: HTT CJ (IC50, decrease in canonical junction mRNA); for AC50: read-out: HTT AJ (AC50, increase in alternative junction mRNA)
# How it was run: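 Read-out is the abundance of canonical-junction versus new alternative-exon-junction mRNA, determined by real-time qPCR after cDNA synthesis and normalized to a housekeeping gene. It is measured in A673 or K562 cells exposed to compounds for 24 h, top dose 10 uM.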
SMILES,GI50 [1] [µM],IC50 [2] [µM],IC50 ([3]; 24 h) [µM],AC50 [3] [µM],IC50 [3] [µM]
Cc1cn2nc(NC(=O)c3ccc(C4CCNCC4)c4cc(C)oc34)cc(C)c2n1 [Compound 118],0.1 to 1,1 to 10,–,–,–
Cc1cn2nc(NC(=O)c3ccc(C4CCNCC4)c4ccoc34)cc(C)c2n1 [Compound 119],1 to 10,> 10,1 to 10,> 10,–
Cc1cn2cc(NC(=O)c3ccc(N4CCNCC4)c4nc(C)oc34)cc(F)c2n1 [Compound 140],1 to 10,1 to 10,–,–,–
Cc1cn2cc(NC(=O)c3ccc(N4CCNCC4)c4oc(C)nc34)cc(F)c2n1 [Compound 141],0.1 to 1,1 to 10,< 0.1,< 0.1,–
Cc1cn2cc(NC(=O)c3ccc(N4CCNCC4)c4cc(C)oc34)cc(F)c2n1 [Compound 142],0.1 to 1,1 to 10,1 to 10,1 to 10,–
"Cc1cn2cc(NC(=O)c3ccc(N4CCNCC4)c4cn(C)nc34)cc(F)c2n1 [Compound 143, N-{8-fluoro-2-methylimidazo[1,2-a]pyridin-6-yl}-2-methyl-4-(piperazin-1-yl) indazole-7-carboxamide]",0.1 to 1,< 0.1,–,–,–
Cc1cn2cc(NC(=O)c3ccc(C4CCNCC4)c4cc(C)oc34)cc(F)c2n1 [Compound 145],–,1 to 10,1 to 10,1 to 10,–
Cc1cn2nc(NC(=O)c3ccc(N4CCNCC4)c4cc(C)oc34)cc(C)c2n1 [Compound 148],1 to 10,1 to 10,1 to 10,1 to 10,–
Cc1cn2cc(NC(=O)c3ccc(C4CCNCC4)c4ccoc34)cc(F)c2n1 [Compound 149],0.1 to 1,1 to 10,1 to 10,1 to 10,–
Cc1cn2cc(NC(=O)c3ccc(N4CCN(C)CC4)c4cc(C)oc34)cc(F)c2n1 [Compound 189],0.1 to 1,1 to 10,1 to 10,1 to 10,–
Cc1cn2cc(NC(=O)c3ccc(N4CCNC(C)C4)c4cc(C)oc34)cc(F)c2n1 (stereo not shown) [Compound 190],0.1 to 1,1 to 10,0.1 to 1,0.1 to 1,–
Cc1cn2cc(NC(=O)c3ccc(N4CCN(C)C(C)C4)c4cc(C)oc34)cc(F)c2n1 (stereo not shown) [Compound 191],0.1 to 1,1 to 10,0.1 to 1,1 to 10,–
CCC1CN(c2ccc(C(=O)Nc3cc(F)c4nc(C)cn4c3)c3oc(C)cc23)CCN1 (stereo not shown) [Compound 192],0.1 to 1,1 to 10,1 to 10,1 to 10,–
Cc1cn2cc(NC(=O)c3ccc(N4CCNC(C)(C)C4)c4cc(C)oc34)cc(F)c2n1 [Compound 193],0.1 to 1,> 10,1 to 10,1 to 10,–
Cc1cn2cc(NC(=O)c3ccc(N4CCNC5(CC5)C4)c4cc(C)oc34)cc(F)c2n1 [Compound 194],0.1 to 1,> 10,–,–,–
Cc1cn2cc(NC(=O)c3ccc(N4CC(C)(C)NC(C)(C)C4)c4cc(C)oc34)cc(F)c2n1 [Compound 195],0.1 to 1,1 to 10,> 10,> 10,–
CCNC1CCN(c2ccc(C(=O)Nc3cc(F)c4nc(C)cn4c3)c3oc(C)cc23)CC1 [Compound 196],< 0.1,1 to 10,–,–,–
Cc1cn2cc(NC(=O)c3ccc(N4CCC(NC(C)(C)C)CC4)c4cc(C)oc34)cc(F)c2n1 [Compound 197],0.1 to 1,> 10,> 10,> 10,–
CC1=CC2C(N3CCC(N(C)C)CC3)=CC=C(C(=O)Nc3cc(F)c4nc(C)cn4c3)C2O1 (stereo not shown) [Compound 198],< 0.1,> 10,–,–,–
Cc1cn2cc(NC(=O)c3ccc(N4CCN5CCCC5C4)c4cc(C)oc34)cc(F)c2n1 (stereo not shown) [Compound 199],0.1 to 1,> 10,0.1 to 1,0.1 to 1,–
Cc1cn2cc(NC(=O)c3ccc(C4CCNCC4)c4cn(C)nc34)cc(F)c2n1 [Compound 208],0.1 to 1,0.1 to 1,–,–,–
Cc1cc2c(N3CCNCC3)ccc(C(=O)Nc3cc(F)c4cn(C)nc4c3)c2o1 [Compound 217],0.1 to 1,> 10,> 10,> 10,–
"CCn1cc2c(N3CC[C@@H](NC)C3)ccc(C(=O)Nc3cc(Cl)c4nc(C)cn4c3)c2n1 [Compound 556, N-{8-chloro-2-methylimidazo[1,2-a]pyridin-6-yl}-2-ethyl-4-[(3R)-3-(methylamino)pyrrolidin-1-yl]indazole-7-carboxamide]",0.1 to 1,1 to 10,> 10,> 10,–
"CCn1cc2c(N3CCC(N)(CC)CC3)cc(F)c(C(=O)Nc3cc(F)c4nc(C)cn4c3)c2n1 [Compound 557, 4-(4-amino-4-ethylpiperidin-1-yl)-2-ethyl-6-fluoro-N-{8-fluoro-2-methylimidazo[1,2-a]pyridin-6-yl}indazole-7-carboxamide]",< 0.1,0.1 to 1,0.1 to 1,0.1 to 1,–
"CCn1cc2c(N3CCC(N[C@H]4C[C@@H](O)C4)CC3)ccc(C(=O)Nc3cc(F)c4nc(C)cn4c3)c2n1 [Compound 559, 2-ethyl-N-{8-fluoro-2-methylimidazo[1,2-a]pyridin-6-yl}-4-(4-{[(1s,3s)-3-hydroxycyclobutyl]amino}piperidin-1-yl) indazole-7-carboxamide]",< 0.1,0.1 to 1,1 to 10,1 to 10,–
"CCn1cc2c(N3CCC(N[C@H]4C[C@H](O)C4)CC3)ccc(C(=O)Nc3cc(F)c4nc(C)cn4c3)c2n1 [Compound 560, 2-ethyl-N-{8-fluoro-2-methylimidazo[1,2-a]pyridin-6-yl}-4-(4-{[(1r,3r)-3-hydroxycyclobutyl]amino}piperidin-1-yl) indazole-7-carboxamide]",< 0.1,1 to 10,1 to 10,1 to 10,–
"Cc1cn2cc(NC(=O)c3ccc(N4CC[C@@H](N5CCNCC5)C4)c4cn(C)nc34)cc(F)c2n1 [Compound 562, N-{8-fluoro-2-methylimidazo[1,2-a]pyridin-6-yl}-2-methyl-4-[(3R)-3-(piperazin-1-yl)pyrrolidin-1-yl]indazole-7-carboxamide hydrochloride]",1 to 10,> 10,> 10,> 10,–
"Cc1cn2cc(NC(=O)c3ccc(N4CC5NC5C4)c4cn(C)nc34)cc(F)c2n1 (stereo not shown) [Compound 563, 4-{3,6-diazabicyclo[3.1.0]hexan-3-yl}-N-{8-fluoro-2-methylimidazo[1,2-a]pyridin-6-yl}-2-methylindazole-7-carboxamide]",0.1 to 1,0.1 to 1,–,0.1 to 1,0.1 to 1
